As to `CN(CCO)Cc1cc(C(=O)c2ccccc2F)cc(C(C)(C)C)c1O`, the melting point lay within 87 to 89 °C.

Regarding `CCOC(=O)c1cn(CC)c2cc3c(cc2c1=O)OCO3`, the melting point lay in the range of 177 to 178 °C. Compound `O=C(CCC(O)c1ccccc1)NC1CCCCC1` (centres undefined) registered a melting point of 91 to 93 °C. Turning to `Cc1cc(C(C)(C)C)cc(C)c1C(=O)O`, the melting point is 160 to 164 °C. The compound `O=C(O)c1cn(C2CC2)c2cc(N3CCNC(CF)C3)c(F)cc2c1=O` (centres undefined) showed a melting point of 202 to 203 °C. For `Cc1c(OCc2ccccc2)ccc2c(O)c(C(=O)Nc3cccc(Br)c3)c(=O)oc12`, the melting point lay within 229 to 231 °C.

`CC(=O)c1cc(-c2c(C)c(NC(=O)CC(C)(C)C)c(C)c3c2OCC3c2ccc(C(C)C)cc2)cs1` (centres undefined) yielded a melting point of 133 to 134 °C. Compound `CCOC(=O)c1ccc(COCc2csc3nc(C(=O)NCc4ccnc(OCC5CCOC5)c4)[nH]c(=O)c23)cc1` (centres undefined) had a melting point of 225 °C. On to `CC(=O)OC(CN1C(=O)N(C(C)=O)C2(CC(C)(C)N(C(C)=O)C(C)(C)C2)C1=O)CN1C(=O)N(C(C)=O)C2(CC(C)(C)N(C(C)=O)C(C)(C)C2)C1=O`, for which the melting point was in the range of 286 to 288 °C. As for `O=C(NCCc1ccccn1)c1ccc2cc(C(=O)O)[nH]c2c1`, the figure is 198 to 199 °C; as for `CC1(C)CC(=O)c2c(nc(Cc3ccc(Cl)cc3)c3[nH]c4ccccc4c23)C1`, 205 to 207 °C. In turn, `CS(=O)(=O)c1ccc(-n2cc(-c3ccc(F)cc3)nc2-c2ccccn2)cc1` came in with a melting point of 88 to 91 °C. `O=C(CSCc1ccccc1)CS(=O)(=O)C(c1ccc(Cl)cc1)c1ccc(Cl)cc1` displayed a melting point of 108 to 110 °C.

As for `CC(C)N1C(=O)N(c2ccc(F)cc2)CSC1=NC(C)(C)C`, the melting point fell in the range of 109 to 110 °C. For the compound `O=C(CCc1ccccc1)NCC(=O)N1c2ccccc2N(Cc2ccccc2)C(=O)[C@H]2CCC[C@H]21` (relative stereo), the melting point was 205 to 207 °C. Compound `CCS(=O)c1cnc(Cl)c(Cl)c1` (centres undefined) came in with a melting point of 78 to 79 °C.

With `COc1ccc(-c2c(C(=O)O)c(=O)n(Cc3ccccc3OC)c3c2oc2cc(N)ccc23)cc1`, the melting point amounted to 245 °C.

Regarding `CCCCCCS(=O)(=O)NC(=O)CCc1cc(OC(C)C)nn1Cc1ccc(Cl)cc1Cl`, the melting point lay within 103 to 106 °C. As for `CCOC(=O)c1c(N)c2cc(Cl)ccc2n1C(=O)C(F)(F)F`, the figure is 249 to 251 °C; as for `COc1ccc(/C=C(\C#N)c2ccc([N+](=O)[O-])cc2)cc1OC1CCCC1`, 186 to 187 °C.

In turn, `CCN(CC)CCNc1ccc(CO)c2sc3ccc(O)cc3c(=O)c12` came in with a melting point of 181 to 182 °C. The result for `Oc1nc2cc(Cl)c3nccnc3c2nc1O` reads > 300 °C. The result for `Cc1oc(-c2ccccc2)nc1CCOc1ccc(/C=C/CO)cn1` reads 115 to 116 °C; that for `CCCCc1nc2c(N)nc3ccc(OCC(=O)N4CCCCC4)cc3c2n1C`, 222 to 223 °C; that for `O=C1c2cc(Cl)ccc2NCN1CCN1CCOCC1`, 82 °C. In turn, `CC(C)(C)Sc1c(CC(C)(C)C(=O)O)n(Cc2ccc(Cl)cc2)c2ccc(OCc3cccc(Cl)n3)cc12` returned a melting point of 206 to 207 °C.

Regarding `CCCc1c(OCCCS(=O)(=O)c2ccc(C(=O)CCC(=O)O)c(F)c2)ccc(C(C)=O)c1O`, the melting point was in the range of 116 to 118 °C. `CC(C)C[C@H](NC(=O)COc1ccc(Cl)cc1)C(=O)N[C@@H](C(C)C)[C@@H](O)c1c(-c2ccccc2)c1=O` registered a melting point of 88 to 90 °C. As for `Cc1ccc(CN2CCN(C3=NC4(C=CC(=O)C=C4)C(c4ccccc4)=C3)CC2)cc1`, the figure is 135 °C; as for `COc1cccc([C@H]2O[C@H](CC(=O)Nc3ncc(CCC(=O)O)s3)C(=O)N(CC(C)(C)CO)c3ccc(Cl)cc32)c1OC`, 203 to 205 °C; as for `NC(=O)CCNc1cc(Oc2ccc(C(F)(F)F)cc2Cl)ccc1[N+](=O)[O-]`, 137 to 138 °C. `CCC1=NNC(C)=C(C(=O)OCCOC(C)C)C1c1cccc([N+](=O)[O-])c1` (centres undefined) registered a melting point of 84 °C. For `CCC(CC)Cn1nc(-c2ccc(O)cc2O)c2cccc(C(F)(F)F)c21`, the melting point fell in the range of 89 to 90 °C.

Consider `Nc1cc(Cl)cc2cccnc12`, for which the melting point is 70 to 73 °C.

Take `C1=C(c2ccccc2)CCN(Cc2nc3ccccc3[nH]2)C1`: the melting point was 253 to 255 °C.

In the case of `CCCc1c2oc(C(=O)O)cc(=O)c2cc2c(=O)ccn(Cc3ccccc3)c12`, the melting point is > 250 °C. The compound `CC(=O)OC1CSC(Oc2ccc(S(C)(=O)=O)cc2)C(OC(C)=O)C1OC(C)=O` (centres undefined) gave a melting point of 168 °C. Take `O=c1[nH]c2c(cc1-c1nnc(C3CC3)o1)CN(Cc1ccccc1)CC2`: the melting point was in the range of 212 to 214 °C. As for `O=Cc1cccc(OCCn2ncc3ccccc3c2=O)c1`, the figure is 110 to 111 °C; as for `CCOC(=N)c1ccccc1-c1ccc(Cn2c(OCC)nc3cccc(C(=O)OC)c32)cc1`, 105 to 106 °C; as for `CNC(=O)c1ccc2c(c1C)OC(c1ccccc1)(c1ccccc1)O2`, 178 to 180 °C. As for `CCOC(=O)C1=C(C)NC(c2c(F)cccc2F)=NC1c1ccc(F)cc1Cl` (centres undefined), the melting point is 163 to 165 °C. As for `CC(=O)N1CCc2c(S(=O)(=O)Cl)ccc(Cl)c2C1`, the figure is 105 to 115 °C; as for `CCCOc1ccc(S(=O)(=O)N2CCN(CC)CC2)cc1-c1nc2cc3ncn(Cc4cccc(F)c4)c3cc2c(=O)[nH]1`, 115 to 117 °C; as for `Cc1ccccc1S(=O)(=O)NC(N)=O`, 179 to 180 °C. As for `c1ccc(-c2ncc(-c3cnc(-c4ccncc4)[nH]3)cn2)cc1`, the figure is 300 °C; as for `NCc1nc(-c2ncn3c2[C@@H]2CCN2C(=O)c2ccccc2-3)no1`, 211 to 214 °C; as for `Cc1cc(CCCCCCCOc2ccc(C3=NCC(CO)O3)cc2)on1` (centres undefined), 71 to 73 °C. As for `CCn1c(=NC(C)=O)c(-c2c(Cl)cccc2Cl)cc2cnc(SC)nc21`, the melting point was 175 to 177 °C.

`COC(=O)/C=C/C=C(/c1ccc(OC)cc1)c1cccs1` yielded a melting point of 97 to 99 °C. For the compound `CC(=O)Nc1nc2c(Oc3cc(-c4ccc(C(F)(F)F)cc4)ncn3)cccc2s1`, the melting point lay within 219 to 220 °C. As to `CCCCCCCC(=O)N(C)Cc1cccc(-c2ccc(C=CC(=O)O)c(F)c2)c1`, the melting point came out at 91 °C.

In turn, `CCCCCCCCCC(=O)NC(=O)OCc1nc(C(C)C)c(Sc2cc(Cl)cc(Cl)c2)n1CC` returned a melting point of 102 to 103 °C.

On to `N#CC1=C(C#N)Sc2nc3cc([N+](=O)[O-])c(Cl)cc3nc2S1`, for which the melting point lay in the range of 228 to 230 °C.

For the compound `CC(C)NC(=O)N1CCC(F)(Cc2c3c(nn2C)c(N)nc2ccccc23)CC1`, the melting point was in the range of 241 to 244 °C. The compound `CNCc1cnc(Nc2n[nH]c3ccc(-c4ncccc4Cl)cc23)s1` returned a melting point of 200 to 201 °C. Take `CCCCCCn1c(=O)c(=O)[nH]c2c3ccccc3ccc21`: the melting point came out at 196 °C.

Compound `COC(=O)c1ccc(C(=O)C=C(c2cc(Cl)cc(Cl)c2)C(F)(F)F)cc1` came in with a melting point of 65.5 to 67.5 °C. The result for `O=S(=O)(c1ccccc1)c1ccc2c(c1)[C@@H](O)[C@H](Br)CCO2` (relative stereo) reads 190 to 193 °C.

For the origin of these results see a melting point compilation (Tetko et al.; mined from patent text by program, amines drawn as free bases though some values may be those of a salt).
